Assay results published in US20150366831A1, “THROMBORESISTANT/BACTERICIDAL S-NITROSO-N-[…] (SNAP)-DOPED NITRIC OXIDE RELEASE POLYMERS WITH ENHANCED STABILITY” (THE REGENTS OF THE UNIVERSITY OF MICHIGNA, priority 2013, published 2015).

Assay: SNAP/E2As dry storage stability study
Type: physicochemical
Settings: SNAP doped in E2As polymer
Method: The stability of SNAP doped in the E2As polymer during dry storage was also evaluated. SNAP incorporated in E2As can potentially undergo thermal or photochemical decomposition during storage, thus limiting the available NO release capacity at the time of use. Therefore, 10 wt % SNAP/E2As films were stored with desiccant in the freezer in the dark, dry in the dark or in ambient light with desiccant at room temperature, and dry in the dark with desiccant at 37° C. and 50° C. These stability studies were conducted in a similar manner as the cumulative NO release experiments, where films were dissolved in DMAc to determine the amount of SNAP remaining in the polymer at various time points (as described herein). […] After 2 months, for example, the 10 wt % SNAP films stored in the freezer (−20° C.) in the dark maintain about 96% of the initial SNAP species, compared to 89% for films stored at room temperature and 82% for films stored at 37° C. (see FIG. 8). […]
SNAP/E2As films (consisting of 10 wt % SNAP) were placed under the following conditions in vials with desiccant: room temperature with ambient light, room temperature in dark, 37° C. in dark, and in the freezer (−20° C.) in dark. At various time points over a 4 month period, films were dissolved in DMAc, and the UV-Vis spectra was recorded to determine the % SNAP remaining in the film, as compared to the initial 10 wt % SNAP.

## CC(=O)N[C@H](C(=O)O)C(C)(C)SN=O (racemic) [SNAP, S-nitroso-N-acetylpenicillamine]
  Time for which SNAP is stable in the Elast-Eon E2As polymer: at least 4 months
